Data as given in the NIST ThermoML archive (doi:10.1016/j.fluid.2014.11.020).
± gives the expanded uncertainty stated by the source.

Test: activity coefficient (dimensionless); of the first substance listed, at infinite dilution; xn = mol fraction of the nth substance listed
Settings: Liquid, Chromatography, x1 = 0

CCCCCCCCCCC [undecane] + CCCOC[n+]1ccn(Cc2ccccc2)c1.F[B-](F)(F)F
activity coefficient (323.15 K): 352 ± 24
activity coefficient (333.15 K): 301 ± 21
activity coefficient (343.15 K): 286 ± 20

CCCCCCCCCCC [undecane] + CCCOC[n+]1ccn(Cc2ccccc2)c1.N#C[N-]C#N
activity coefficient (323.15 K): 208 ± 14
activity coefficient (333.15 K): 175 ± 12
activity coefficient (343.15 K): 140 ± 9.6

CCCCCCCCCCC [undecane] + CCCOC[n+]1ccn(Cc2ccccc2)c1.O=S(=O)([N-]S(=O)(=O)C(F)(F)F)C(F)(F)F
activity coefficient (323.15 K): 41.6 ± 2.9
activity coefficient (333.15 K): 31 ± 2.1
activity coefficient (343.15 K): 27.7 ± 1.9

CCCCCCCCCCC [undecane] + CN(C)c1cc[n+](COCCCOC[n+]2ccc(N(C)C)cc2)cc1.O=S(=O)([N-]S(=O)(=O)C(F)(F)F)C(F)(F)F.O=S(=O)([N-]S(=O)(=O)C(F)(F)F)C(F)(F)F
activity coefficient (323.15 K): 114 ± 7.8
activity coefficient (333.15 K): 99 ± 6.8
activity coefficient (343.15 K): 88.6 ± 6.1

CCCCCCCCCCC [undecane] + Cn1cc[n+](COCCCOC[n+]2ccn(C)c2)c1.N#C[N-]C#N.N#C[N-]C#N
activity coefficient (323.15 K): 938 ± 65
activity coefficient (333.15 K): 899 ± 62
activity coefficient (343.15 K): 797 ± 55

CCCCCCCCCCC [undecane] + Cn1cc[n+](COCCCOC[n+]2ccn(C)c2)c1.O=S(=O)([N-]S(=O)(=O)C(F)(F)F)C(F)(F)F.O=S(=O)([N-]S(=O)(=O)C(F)(F)F)C(F)(F)F
activity coefficient (323.15 K): 193 ± 13
activity coefficient (333.15 K): 191 ± 13
activity coefficient (343.15 K): 162 ± 11

CCCCCCCCCCC [undecane] + N#C[N-]C#N.N#C[N-]C#N.c1ccc(Cn2cc[n+](COCCCOC[n+]3ccn(Cc4ccccc4)c3)c2)cc1
activity coefficient (323.15 K): 554 ± 38
activity coefficient (333.15 K): 508 ± 35
activity coefficient (343.15 K): 457 ± 31
